Reference: ChEMBL document CHEMBL3286195, “Discovery of (10R)-7-amino-12-fluoro-2,10,16-trimethyl-15-oxo-10,15,16,17-tetrahydro-2H-8,4-(metheno)pyrazolo[4,3-h][2,5,11]-benzoxadiazacyclotetradecine-3-carbonitrile (PF-06463922), a macrocyclic inhibitor of anaplastic lymphoma kinase (ALK) and c-ros oncogene 1 (ROS1) with preclinical brain …” (J Med Chem, 2014)

What was measured:
in vitro = conditions: human, liver microsomes
Description: Apparent total intrinsic clearance in human liver microsomes

physchem = conditions: octanol/water, pH 7.4
[1] = molecular target: ALK tyrosine kinase receptor (Homo sapiens, UniProt Q9UM73, L1196M)
[2] = molecular target: ALK tyrosine kinase receptor (Homo sapiens, UniProt Q9UM73)
MDR1 = assay: in vitro; conditions: dog, MDCK-MDR1, pH 7.4
Description: Efflux ratio of permeability from basolateral to apical side to apical to basolateral side of MDCK cells expressing MDR1 at pH 7.4

[3] = molecular target: BDNF/NT-3 growth factors receptor (Homo sapiens, UniProt Q16620)
Description: Inhibition of TRKB (unknown origin) by off-chip mobility shift assay

Brain = assay: fAUC in rat brain at 10 mg/kg, po; assay type: ADME, organism-based; design: dose 10 mg/kg, route oral; conditions: in vivo
Focal adhesion kinase 1 = Focal adhesion kinase 1 (Homo sapiens, UniProt Q05397)
Description: Inhibition of PTK2 (unknown origin) by TR-FRET-based Z'-LYTE assay

[4] = Oral bioavailability in rat at 10 mg/kg qd; assay type: ADME, organism-based; conditions: in vivo
[5] = Fraction unbound in rat plasma at 2.4 uM; assay type: ADME, cell-free
Plasma [6] = assay: Average plasma concentration in rat at 10 mg/kg, po qd; assay type: ADME, organism-based; design: dose 10 mg/kg, route oral; conditions: in vivo
[7] = molecular target: Protein-tyrosine kinase 2-beta (Homo sapiens, UniProt Q14289)
Description: Inhibition of PTK2B (unknown origin) by TR-FRET-based Z'-LYTE assay

[8] = AUC (infinity) in rat at 1 mg/kg, iv qd; assay type: ADME, organism-based; design: time infinity, dose 1 mg/kg, route intravenous; conditions: plasma
Activated CDC42 kinase 1 = Activated CDC42 kinase 1 (Homo sapiens, UniProt Q07912)
Description: Inhibition of TNK2 (unknown origin) by TR-FRET-based Z'-LYTE assay

[9] = molecular target: Tyrosine-protein kinase Fer (Homo sapiens, UniProt P16591); assay: Inhibition of FER (unknown origin) by TR-FRET-based Z'-LYTE assay
[10] = molecular target: Tyrosine-protein kinase Fes/Fps (Homo sapiens, UniProt P07332); assay: Inhibition of FES (unknown origin) by TR-FRET-based Z'-LYTE assay
Plasma [11] = assay: fAUC in rat plasma at 10 mg/kg, po; assay type: ADME, organism-based; design: dose 10 mg/kg, route oral; conditions: in vivo
[12] = Fraction unbound in rat brain at 2.4 uM; assay type: ADME, tissue-based
[13] = fAUC in rat CSF at 10 mg/kg, po; assay type: ADME, organism-based, Cerebrospinal fluid; design: dose 10 mg/kg, route oral; conditions: in vivo
[14] = molecular target: NT-3 growth factor receptor (Homo sapiens, UniProt Q16288)
Description: Inhibition of NRTK3 (unknown origin) by TR-FRET-based Z'-LYTE assay

[15] = molecular target: Leukocyte tyrosine kinase receptor (Homo sapiens, UniProt P29376); assay: Inhibition of LTK (unknown origin) by TR-FRET-based Z'-LYTE assay
[16] = AUC in rat plasma at 10 mg/kg, po; assay type: ADME, organism-based; design: dose 10 mg/kg, route oral
[17] = molecular target: High affinity nerve growth factor receptor (Homo sapiens, UniProt P04629); assay: Inhibition of […] (unknown origin) by TR-FRET-based Z'-LYTE assay
[18] = AUC (0 to 24 hrs) in rat at 10 mg/kg, po qd; assay type: ADME, organism-based; design: time < 24 hr, dose 10 mg/kg, route oral; conditions: plasma
[19] = Plasma clearance in rat at 1 mg/kg, iv qd; assay type: ADME, organism-based; design: dose 1 mg/kg, route intravenous
[20] = AUC in rat brain at 10 mg/kg, po; assay type: ADME, organism-based; design: dose 10 mg/kg, route oral
[21] = Volume of distribution at steady state in rat at 1 mg/kg, iv qd; assay type: ADME, organism-based; design: dose 1 mg/kg, route intravenous; conditions: in vivo, read-out: Vdss
[22] = Cmax in rat at 10 mg/kg, po qd; assay type: ADME, organism-based; design: dose 10 mg/kg, route oral; conditions: in vivo
[23] = Half life in rat at 1 mg/kg, iv qd; assay type: ADME, organism-based; design: dose 1 mg/kg, route intravenous; conditions: in vivo
[24] = Tmax in rat at 10 mg/kg, po qd; assay type: ADME, organism-based; design: dose 10 mg/kg, route oral; conditions: in vivo
[25] = molecular target: Tyrosine-protein kinase FRK (Homo sapiens, UniProt P42685); assay: Inhibition of FRK (unknown origin) by TR-FRET-based Z'-LYTE assay
Rattus norvegicus = assay: fCmax in rat at 10 mg/kg, po qd; assay type: ADME, organism-based; design: dose 10 mg/kg, route oral; conditions: in vivo
[26] = AUC in rat CSF at 10 mg/kg, po; assay type: ADME, organism-based, Plasma; design: dose 10 mg/kg, route oral

BDNF/NT-3 growth factors receptor, sequence (Q16620 whole entry): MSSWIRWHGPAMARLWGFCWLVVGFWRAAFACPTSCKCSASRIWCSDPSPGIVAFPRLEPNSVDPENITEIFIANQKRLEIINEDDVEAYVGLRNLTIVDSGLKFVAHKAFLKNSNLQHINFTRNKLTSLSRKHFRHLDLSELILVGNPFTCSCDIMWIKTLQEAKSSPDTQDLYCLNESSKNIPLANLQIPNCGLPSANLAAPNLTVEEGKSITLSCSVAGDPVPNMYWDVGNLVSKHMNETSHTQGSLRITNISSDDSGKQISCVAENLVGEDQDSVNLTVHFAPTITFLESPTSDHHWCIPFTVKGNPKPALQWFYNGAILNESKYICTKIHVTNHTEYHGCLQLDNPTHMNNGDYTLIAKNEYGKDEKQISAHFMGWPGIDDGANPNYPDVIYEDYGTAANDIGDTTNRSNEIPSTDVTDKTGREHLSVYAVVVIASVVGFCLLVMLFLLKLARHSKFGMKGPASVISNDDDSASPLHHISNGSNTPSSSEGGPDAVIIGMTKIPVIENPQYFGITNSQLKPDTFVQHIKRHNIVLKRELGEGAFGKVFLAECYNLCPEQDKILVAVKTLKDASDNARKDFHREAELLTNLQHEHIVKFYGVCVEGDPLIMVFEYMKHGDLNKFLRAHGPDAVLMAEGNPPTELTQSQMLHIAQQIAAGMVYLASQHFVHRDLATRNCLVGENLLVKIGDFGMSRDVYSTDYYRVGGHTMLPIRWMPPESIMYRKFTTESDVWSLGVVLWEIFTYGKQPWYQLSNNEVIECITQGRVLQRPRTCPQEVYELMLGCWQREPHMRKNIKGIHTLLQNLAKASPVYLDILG
Tyrosine-protein kinase FRK, sequence (P42685 whole entry): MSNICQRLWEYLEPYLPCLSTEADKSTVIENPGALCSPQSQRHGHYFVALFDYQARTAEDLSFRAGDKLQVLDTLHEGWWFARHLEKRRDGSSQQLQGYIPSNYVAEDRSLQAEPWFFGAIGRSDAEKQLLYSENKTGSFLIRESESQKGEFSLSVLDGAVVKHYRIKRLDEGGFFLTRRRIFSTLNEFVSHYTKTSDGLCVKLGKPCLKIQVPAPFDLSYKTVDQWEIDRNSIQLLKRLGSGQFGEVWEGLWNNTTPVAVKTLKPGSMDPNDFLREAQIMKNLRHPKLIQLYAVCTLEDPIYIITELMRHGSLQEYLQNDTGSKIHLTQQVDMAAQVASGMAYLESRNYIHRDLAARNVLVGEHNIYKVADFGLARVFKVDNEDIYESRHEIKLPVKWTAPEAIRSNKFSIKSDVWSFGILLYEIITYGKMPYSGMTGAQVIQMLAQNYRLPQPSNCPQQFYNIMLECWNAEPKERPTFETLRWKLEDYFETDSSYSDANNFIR
Protein-tyrosine kinase 2-beta, sequence (Q14289 whole entry): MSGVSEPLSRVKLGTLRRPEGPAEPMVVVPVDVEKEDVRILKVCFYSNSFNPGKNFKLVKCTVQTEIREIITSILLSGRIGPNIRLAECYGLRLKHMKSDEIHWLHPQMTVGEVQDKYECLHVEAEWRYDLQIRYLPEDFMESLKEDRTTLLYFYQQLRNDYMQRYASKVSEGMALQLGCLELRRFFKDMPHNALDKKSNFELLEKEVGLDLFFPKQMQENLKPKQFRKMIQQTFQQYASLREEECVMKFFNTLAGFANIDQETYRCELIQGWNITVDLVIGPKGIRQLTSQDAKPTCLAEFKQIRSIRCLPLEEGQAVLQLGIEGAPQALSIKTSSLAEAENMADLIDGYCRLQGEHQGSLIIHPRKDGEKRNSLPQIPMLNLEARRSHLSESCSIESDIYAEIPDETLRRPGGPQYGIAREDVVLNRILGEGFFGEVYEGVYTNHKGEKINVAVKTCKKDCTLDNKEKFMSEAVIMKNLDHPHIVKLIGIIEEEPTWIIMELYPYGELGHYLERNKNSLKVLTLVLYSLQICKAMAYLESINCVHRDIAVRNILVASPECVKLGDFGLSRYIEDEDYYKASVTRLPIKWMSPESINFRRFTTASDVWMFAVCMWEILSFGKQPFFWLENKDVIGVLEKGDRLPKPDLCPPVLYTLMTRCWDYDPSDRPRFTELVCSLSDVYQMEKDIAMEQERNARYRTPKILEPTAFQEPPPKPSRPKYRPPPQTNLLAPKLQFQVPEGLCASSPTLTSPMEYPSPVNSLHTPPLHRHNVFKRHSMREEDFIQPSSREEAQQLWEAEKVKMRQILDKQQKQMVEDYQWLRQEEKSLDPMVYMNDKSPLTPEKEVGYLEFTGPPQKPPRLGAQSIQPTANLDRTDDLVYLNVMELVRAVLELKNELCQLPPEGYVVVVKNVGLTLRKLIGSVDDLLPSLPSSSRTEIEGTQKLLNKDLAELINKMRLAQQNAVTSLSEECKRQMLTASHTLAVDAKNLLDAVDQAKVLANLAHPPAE
Tyrosine-protein kinase Fes/Fps, sequence (P07332 whole entry): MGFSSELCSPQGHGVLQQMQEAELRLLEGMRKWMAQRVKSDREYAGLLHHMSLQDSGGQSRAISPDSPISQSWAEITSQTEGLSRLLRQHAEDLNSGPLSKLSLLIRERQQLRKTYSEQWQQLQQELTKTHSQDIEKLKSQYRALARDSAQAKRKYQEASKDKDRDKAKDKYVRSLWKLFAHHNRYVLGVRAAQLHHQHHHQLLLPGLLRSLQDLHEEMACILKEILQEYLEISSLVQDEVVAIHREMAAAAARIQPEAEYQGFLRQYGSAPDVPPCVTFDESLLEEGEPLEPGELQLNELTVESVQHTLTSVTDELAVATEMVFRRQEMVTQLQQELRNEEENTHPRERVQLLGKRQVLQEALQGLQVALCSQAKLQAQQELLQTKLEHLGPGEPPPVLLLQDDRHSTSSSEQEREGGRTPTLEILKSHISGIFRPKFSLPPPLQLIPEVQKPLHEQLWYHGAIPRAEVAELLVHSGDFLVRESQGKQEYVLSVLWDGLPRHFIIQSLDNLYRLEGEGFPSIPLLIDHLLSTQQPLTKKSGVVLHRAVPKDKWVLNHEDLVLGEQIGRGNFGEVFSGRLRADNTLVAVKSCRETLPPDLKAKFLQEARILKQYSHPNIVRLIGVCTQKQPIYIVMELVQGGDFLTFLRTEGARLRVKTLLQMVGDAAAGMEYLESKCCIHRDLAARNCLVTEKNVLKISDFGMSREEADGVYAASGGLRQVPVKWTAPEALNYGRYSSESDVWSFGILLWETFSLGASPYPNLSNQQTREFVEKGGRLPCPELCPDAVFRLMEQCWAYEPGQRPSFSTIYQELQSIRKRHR
ALK tyrosine kinase receptor (Homo sapiens, UniProt Q9UM73), sequence (Q9UM73 whole entry): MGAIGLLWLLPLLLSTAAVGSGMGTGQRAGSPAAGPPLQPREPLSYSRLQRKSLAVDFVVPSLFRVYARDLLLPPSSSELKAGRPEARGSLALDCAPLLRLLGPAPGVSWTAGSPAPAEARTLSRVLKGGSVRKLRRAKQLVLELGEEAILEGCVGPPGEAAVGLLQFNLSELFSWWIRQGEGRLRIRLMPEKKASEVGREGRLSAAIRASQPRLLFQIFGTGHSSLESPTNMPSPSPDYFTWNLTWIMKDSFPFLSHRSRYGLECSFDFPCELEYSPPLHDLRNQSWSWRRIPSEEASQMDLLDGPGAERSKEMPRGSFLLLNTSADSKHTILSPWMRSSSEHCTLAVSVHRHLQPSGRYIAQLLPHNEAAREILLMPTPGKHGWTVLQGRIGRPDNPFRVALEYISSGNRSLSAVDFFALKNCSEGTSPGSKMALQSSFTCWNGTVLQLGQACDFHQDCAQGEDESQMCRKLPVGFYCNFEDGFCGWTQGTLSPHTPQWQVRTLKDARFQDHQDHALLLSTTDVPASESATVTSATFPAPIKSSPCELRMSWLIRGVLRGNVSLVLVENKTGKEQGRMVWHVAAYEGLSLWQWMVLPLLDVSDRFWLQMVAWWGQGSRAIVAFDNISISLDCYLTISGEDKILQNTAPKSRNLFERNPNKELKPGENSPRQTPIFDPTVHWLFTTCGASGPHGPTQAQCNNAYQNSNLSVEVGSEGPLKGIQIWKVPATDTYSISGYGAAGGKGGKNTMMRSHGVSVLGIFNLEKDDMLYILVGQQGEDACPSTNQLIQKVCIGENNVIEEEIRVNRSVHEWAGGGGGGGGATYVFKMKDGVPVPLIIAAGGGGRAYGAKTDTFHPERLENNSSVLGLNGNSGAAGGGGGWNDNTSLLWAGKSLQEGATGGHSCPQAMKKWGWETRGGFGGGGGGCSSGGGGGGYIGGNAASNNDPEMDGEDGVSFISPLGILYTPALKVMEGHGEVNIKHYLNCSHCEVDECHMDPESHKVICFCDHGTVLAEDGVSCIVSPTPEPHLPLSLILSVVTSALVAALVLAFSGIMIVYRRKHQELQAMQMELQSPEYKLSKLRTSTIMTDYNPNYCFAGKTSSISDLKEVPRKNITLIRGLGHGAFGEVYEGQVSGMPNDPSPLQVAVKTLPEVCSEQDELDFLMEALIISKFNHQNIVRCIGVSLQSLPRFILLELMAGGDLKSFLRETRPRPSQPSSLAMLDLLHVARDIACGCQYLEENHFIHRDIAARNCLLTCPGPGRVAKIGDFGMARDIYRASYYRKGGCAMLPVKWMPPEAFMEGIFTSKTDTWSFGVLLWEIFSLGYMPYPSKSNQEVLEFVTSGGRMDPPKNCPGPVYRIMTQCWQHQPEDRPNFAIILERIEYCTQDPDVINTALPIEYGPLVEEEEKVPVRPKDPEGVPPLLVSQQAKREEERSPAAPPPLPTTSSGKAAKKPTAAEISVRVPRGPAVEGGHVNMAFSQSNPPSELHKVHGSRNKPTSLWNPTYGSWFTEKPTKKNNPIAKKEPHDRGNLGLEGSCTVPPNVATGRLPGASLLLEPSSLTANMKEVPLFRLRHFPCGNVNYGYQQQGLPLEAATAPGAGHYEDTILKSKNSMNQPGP

C[C@@H](Oc1cc(-c2cnnn2C)cnc1N)c1cc(F)ccc1-n1nccn1
CLint scaled (in vitro): 8 mL/min/kg

Cc1nc([C@](C)(O)CO)sc1-c1cnc(N)c(O[C@H](C)c2cc(F)ccc2-n2nccn2)c1
CLint scaled (in vitro): 13 mL/min/kg

Cc1nn(C)cc1-c1cnc(N)c(O[C@H](C)c2cc(F)ccc2-n2nccn2)c1
CLint scaled (in vitro): 66 mL/min/kg

COc1ccc(F)cc1[C@@H](C)Oc1cc(-c2cnnn2C)cnc1N
CLint scaled (in vitro): 25 mL/min/kg
logD (physchem): 2.4

CNC(=O)c1ccc(F)cc1[C@@H](C)Oc1cc(-c2cn(C)nc2C)cnc1N
CLint scaled (in vitro): 28 mL/min/kg
logD (physchem): 2.1

Cc1nn(C)cc1-c1cnc(N)c(O[C@H](C)c2cc(F)ccc2C(=O)N(C)C)c1
Ki [1]: 310 nM
Ki [2]: 22 nM
efflux ratio (MDR1): 7.6
CLint scaled (in vitro): 58 mL/min/kg
logD (physchem): 2.1

COc1ncccc1-c1cnc(N)c(O[C@H](C)c2cc(F)ccc2-n2nccn2)n1
CLint scaled (in vitro): 41 mL/min/kg
logD (physchem): 4

CNC(=O)c1ccc(F)cc1[C@@H](C)Oc1nc(-c2cccnc2OC)cnc1N
CLint scaled (in vitro): 76 mL/min/kg
logD (physchem): 3

C[C@@H](Oc1cc(-c2cccc(S(C)(=O)=O)c2)cnc1N)c1cc(F)ccc1-n1nccn1
CLint scaled (in vitro): 10 mL/min/kg
logD (physchem): 3.4

N#Cc1[nH]nc2c1-c1cnc(N)c(c1)OCc1cc(F)ccc1OCC2
logD (physchem): 3

N#Cc1[nH]nc2c1-c1cnc(N)c(c1)OCc1cc(F)ccc1OCCC2
logD (physchem): 3.6

Cn1ncc2c1-c1cnc(N)c(c1)OCc1cc(F)ccc1OCCC2
logD (physchem): 3.4

Cn1ncc2c1-c1cnc(N)c(c1)OCc1cc(F)ccc1OCCCC2
logD (physchem): 3.1

C[C@H]1Oc2cc(cnc2N)-c2c(nn(C)c2C#N)CCOc2ccc(F)cc21
logD (physchem): 3.3

C[C@H]1Oc2cc(cnc2N)-c2c(nn(C)c2C#N)CCCOc2ccc(F)cc21
logD (physchem): 3.8

Cc1nn(C)c2c1-c1cnc(N)c(c1)O[C@H](C)c1cc(F)ccc1C(=O)N(C)C2
Ki [3]: 0.5 nM
CLint scaled (in vitro): 8.6 mL/min/kg
logD (physchem): 2.2

Cc1nn(C)c2c1-c1cnc(N)c(c1)O[C@@H](C)c1cc(F)ccc1C(=O)N(C)C2
CLint scaled (in vitro): 8 mL/min/kg
logD (physchem): 2.2

Cc1nn(C)c2c1-c1cnc(N)c(c1)OCc1cc(F)ccc1C(=O)N(C)C2
CLint scaled (in vitro): 8.4 mL/min/kg
logD (physchem): 2

Cc1nn(C)c2c1-c1cnc(N)c(n1)O[C@H](C)c1cc(F)ccc1C(=O)N(C)C2
CLint scaled (in vitro): 8 mL/min/kg
logD (physchem): 2.5

Cc1nn(C)c2c1-c1cnc(N)c(n1)O[C@@H](C)c1cc(F)ccc1C(=O)N(C)C2
CLint scaled (in vitro): 9.7 mL/min/kg
logD (physchem): 2.5

COc1nn(C)c2c1-c1cnc(N)c(c1)O[C@H](C)c1cc(F)ccc1C(=O)N(C)C2
CLint scaled (in vitro): 8.3 mL/min/kg
logD (physchem): 2.4

COc1nn(C)c2c1-c1cnc(N)c(n1)O[C@H](C)c1cc(F)ccc1C(=O)N(C)C2
CLint scaled (in vitro): 23.5 mL/min/kg
logD (physchem): 2.7

C[C@H]1Oc2cc(cnc2N)-c2cc(S(C)(=O)=O)ccc2CN(C)C(=O)c2ccc(F)cc21
CLint scaled (in vitro): 9.1 mL/min/kg
logD (physchem): 1.8

C[C@H]1Oc2nc(cnc2N)-c2cc(S(C)(=O)=O)ccc2CN(C)C(=O)c2ccc(F)cc21
CLint scaled (in vitro): 8 mL/min/kg
logD (physchem): 2.2

C[C@H]1Oc2cc(cnc2N)-c2c(C3CC3)nn(C)c2CN(C)C(=O)c2ccc(F)cc21
Ki [3]: 0.4 nM
CLint scaled (in vitro): 14.6 mL/min/kg
logD (physchem): 2.9

Cc1cnc2nc3c(n2c1)-c1cnc(N)c(c1)O[C@H](C)c1cc(F)ccc1C(=O)N(C)C3
Ki [3]: 77 nM
efflux ratio (MDR1): 20.2
CLint scaled (in vitro): < 8 mL/min/kg
logD (physchem): 1.7

C[C@H]1Oc2nc(cnc2N)-c2c(nc3ccc(C#N)cn23)CN(C)C(=O)c2ccc(F)cc21
Ki [3]: 65 nM
CLint scaled (in vitro): < 8 mL/min/kg
logD (physchem): 2.4

C[C@H]1Oc2cc(cnc2N)-c2c(nn(C)c2C#N)CN(C)C(=O)c2ccc(F)cc21 [LORLATINIB]
fAUC (Brain): 2355 nM·h
IC50 (Focal adhesion kinase 1): 17 nM
bioavailability [4]: 100%
fraction unbound at 2.4 µM [5]: 0.36
Cave (Plasma [6]): 551 nM
IC50 [7]: 14 nM
AUC(0-inf) [8]: 1150 ng·h/mL
IC50 (Activated CDC42 kinase 1): 17 nM
IC50 [9]: 3.3 nM
IC50 [10]: 6 nM
fAUC (Plasma [11]): 11.052 µM·h
fraction unbound at 2.4 µM [12]: 0.12
CLint scaled (in vitro): < 8 mL/min/kg
fAUC [13]: 3.475 µM·h
IC50 [14]: 46 nM
IC50 [15]: 2.7 nM
AUC [16]: 30.7 µM·h
IC50 [17]: 24 nM
AUC at 24 h [18]: 14900 ng·h/mL
clearance [19]: 15.5 mL/min/kg
AUC [20]: 19.6 µM·h
Vd [21]: 2.7 L/kg
logD (physchem): 2.3
Cmax [22]: 1730 ng/mL
half-life [23]: 162 min
Tmax [24]: 1.3 h
IC50 [25]: 53 nM
fCmax (Rattus norvegicus): 1530 nM
AUC [26]: 3.48 µM·h
